According to publication PMC11078746 (Nature, 2024):
Several values for one entry are separate records, joined by “and”; a condition that tells them apart may be missing. Identical values can stand only once. Like-named read-outs stand apart in the source and are kept apart here.

Assay: Compound 3 blood PK in SW48 tumour-bearing mice
Type: in vivo, mouse
Method: All animal studies were conducted in accordance with ethics and procedures covered by permit BS-2275 and BS-1975 issued by the Kantonales Veterinäramt Basel-Stadt and in strict adherence to guidelines of the Eidgenössisches Tierschutzgesetz and the Eidgenössische Tierschutzverordnung, Switzerland. All animal studies were approved by the internal ethics committee. All animals had access to food and water ad libitum and were identified with transponders. They were housed in a specific-pathogen-free facility in IVC racks under a 12 h–12 h light–dark cycle. To establish cell-line-derived xenograft models, 6–7-week-old female athymic nude (Crl:NU(NCr)-Foxn1^nu) or SCID-BEIGE (CB17.Cg-PrkdcscidLystbg-J/Crl) mice from Charles River were engrafted subcutaneously with 5 million tumour cells in HBSS (H6648, Sigma-Aldrich). For SNU-407, Lovo, IM95, RL95.2, Ishikawa and IGROV-1, the cells were concentrated in 50% Matrigel (354234, Corning). Patient-derived xenografts were induced and expanded by transplantation as previously described. […]. For the efficacy experiment, mice were randomized into groups (n = 5–6) for a mean tumour size of 100–150 mm^3. […] Blood samples were collected on day 7 and 91. […]. Tumour responses are reported with the measures of tumour volumes from the treatment start. […]. Animals were randomized (n = 3) and tumour samples were collected at 0, 1, 4, 8 and 24 h on the first day and then collected 4 h after the last treatment on day 3, 8, 10, 14 (including a 24 h timepoint), 17 and 21. Tumours were excised, weighed, either frozen in liquid nitrogen and cryogenic dry pulverized with the CryoPrep system (model CP-02, Covaris) or processed to FFPE after fixation. […]. On day 12, blood samples were collected for PK analysis. On the last day (3 h after the last treatment), tumours were excised, weighed, frozen in liquid nitrogen and cryogenic dry pulverized for PD analysis. […]. […]

- concentration at 4 h (15mg/kg BID, 1 h, single mouse, listed as WRNi #4, read-out: Total blood concentration): 680 nM and 520 nM
- concentration at 4 h (15mg/kg BID, 2 h, single mouse, listed as WRNi #4, read-out: Total blood concentration): 110 nM and 260 nM and 360 nM
- concentration at 4 h (15mg/kg BID, 4 h, single mouse, listed as WRNi #4, read-out: Total blood concentration): 100 nM and 200 nM
- concentration at 4 h (15mg/kg BID, 8 h, single mouse, listed as WRNi #4, read-out: Total blood concentration): 80 nM and 130 nM and 220 nM
- concentration at 4 h (15mg/kg BID, last day of the efficacy experiment, 0.5 h post treatment, single mouse, listed as WRNi #4, read-out: Total blood concentration): 450 nM and 470 nM and 950 nM
- concentration at 4 h (50mg/kg BID, 0.5 h, single mouse, listed as WRNi #4, read-out: Total blood concentration): 8660 nM and 6870 nM
- concentration at 4 h (50mg/kg BID, 1 h, single mouse, listed as WRNi #4, read-out: Total blood concentration): 5090 nM and 4750 nM
- concentration at 4 h (50mg/kg BID, 2 h, single mouse, listed as WRNi #4, read-out: Total blood concentration): 1600 nM and 2410 nM
- concentration at 4 h (50mg/kg BID, 4 h, single mouse, listed as WRNi #4, read-out: Total blood concentration): 470 nM and 240 nM and 860 nM
- concentration at 4 h (50mg/kg BID, 8 h, single mouse, listed as WRNi #4, read-out: Total blood concentration): 100 nM and 210 nM and 230 nM
- concentration at 4 h (150mg/kg BID, 0.5 h, single mouse, listed as WRNi #4, read-out: Total blood concentration): 23940 nM and 28210 nM
- concentration at 4 h (150mg/kg BID, 1 h, single mouse, listed as WRNi #4, read-out: Total blood concentration): 13050 nM and 11280 nM
- concentration at 4 h (150mg/kg BID, 2 h, single mouse, listed as WRNi #4, read-out: Total blood concentration): 7350 nM and 7410 nM
- concentration at 4 h (150mg/kg BID, 4 h, single mouse, listed as WRNi #4, read-out: Total blood concentration): 3220 nM and 720 nM and 1060 nM
- concentration at 4 h (150mg/kg BID, 8 h, single mouse, listed as WRNi #4, read-out: Total blood concentration): 460 nM and 210 nM and 390 nM
- concentration at 0.5 h (female, mouse, whole blood, oral, 15 mg/kg, 15mg/kg BID, 0.5 h, read-out: Mean total blood concentration): 620 nM
- concentration at 1 h (female, mouse, whole blood, oral, 15 mg/kg, 15mg/kg BID, 1 h, read-out: Mean total blood concentration): 680 nM
- concentration at 1 h (female, mouse, whole blood, oral, 15 mg/kg, 15mg/kg BID, 1 h, single mouse, read-out: Total blood concentration): 840 nM
- concentration at 2 h (female, mouse, whole blood, oral, 15 mg/kg, 15mg/kg BID, 2 h, read-out: Mean total blood concentration): 240 nM
- concentration at 4 h (female, mouse, whole blood, oral, 15 mg/kg, 15mg/kg BID, 4 h, read-out: Mean total blood concentration): 130 nM
- concentration at 4 h (female, mouse, whole blood, oral, 15 mg/kg, 15mg/kg BID, 4 h, single mouse, read-out: Total blood concentration): 100 nM
- concentration at 8 h (female, mouse, whole blood, oral, 15 mg/kg, 15mg/kg BID, 8 h, read-out: Mean total blood concentration): 140 nM
- concentration at 0.5 h (female, mouse, whole blood, oral, 50 mg/kg, 50mg/kg BID, 0.5 h, read-out: Mean total blood concentration): 7340 nM
- concentration at 0.5 h (female, mouse, whole blood, oral, 50 mg/kg, 50mg/kg BID, 0.5 h, single mouse, read-out: Total blood concentration): 6500 nM
- concentration at 1 h (female, mouse, whole blood, oral, 50 mg/kg, 50mg/kg BID, 1 h, read-out: Mean total blood concentration): 4820 nM
- concentration at 1 h (female, mouse, whole blood, oral, 50 mg/kg, 50mg/kg BID, 1 h, single mouse, read-out: Total blood concentration): 4620 nM
- concentration at 2 h (female, mouse, whole blood, oral, 50 mg/kg, 50mg/kg BID, 2 h, read-out: Mean total blood concentration): 2060 nM
- concentration at 2 h (female, mouse, whole blood, oral, 50 mg/kg, 50mg/kg BID, 2 h, single mouse, read-out: Total blood concentration): 2180 nM
- concentration at 4 h (female, mouse, whole blood, oral, 50 mg/kg, 50mg/kg BID, 4 h, read-out: Mean total blood concentration): 520 nM
- concentration at 8 h (female, mouse, whole blood, oral, 50 mg/kg, 50mg/kg BID, 8 h, read-out: Mean total blood concentration): 180 nM
- concentration at 0.5 h (female, mouse, whole blood, oral, 150 mg/kg, 150mg/kg BID, 0.5 h, read-out: Mean total blood concentration): 22900 nM
- concentration at 0.5 h (female, mouse, whole blood, oral, 150 mg/kg, 150mg/kg BID, 0.5 h, single mouse, read-out: Total blood concentration): 16500 nM
- concentration at 1 h (female, mouse, whole blood, oral, 150 mg/kg, 150mg/kg BID, 1 h, read-out: Mean total blood concentration): 14700 nM
- concentration at 1 h (female, mouse, whole blood, oral, 150 mg/kg, 150mg/kg BID, 1 h, single mouse, read-out: Total blood concentration): 19700 nM
- concentration at 2 h (female, mouse, whole blood, oral, 150 mg/kg, 150mg/kg BID, 2 h, read-out: Mean total blood concentration): 8330 nM
- concentration at 2 h (female, mouse, whole blood, oral, 150 mg/kg, 150mg/kg BID, 2 h, single mouse, read-out: Total blood concentration): 10200 nM
- concentration at 4 h (female, mouse, whole blood, oral, 150 mg/kg, 150mg/kg BID, 4 h, read-out: Mean total blood concentration): 1670 nM
- concentration at 8 h (female, mouse, whole blood, oral, 150 mg/kg, 150mg/kg BID, 8 h, read-out: Mean total blood concentration): 350 nM
SMILES: CCc1c(N2CCN(C(=O)c3ncccc3O)CC2)c(=O)n2nc(C3=CCOCC3)nc2n1CC(=O)Nc1ccc(C(F)(F)F)cc1C [compound 3]
